Counter-ions that a name gives are not always drawn.

The first test deals with rat pituitary cells. The test can be described thus: growth hormone secretion in rat pituitary cell cultures (GH release, RIA). The test is classed as cell-based. The note with it: 0.25 h; GH release from cultured rat anterior pituitary cells, 15 min incubation at 37° C., rat GH measured by double antibody RIA; read-out: ED50 (the source's name). As to the method: The bioassay employed for the determination of growth hormone secretion in rat pituitary cell cultures has been previously described--Cheng, K.; Chan, W. W.-S; Barreto, A.; Convey, E. M.; Smith, R. G. Endocrinology 124: 2791-2798 (1989)--and is summarized here: The Wistar male rats (150-200 grams) were obtained from Charles River Laboratories (Wilmington, Mass). Rats were maintained at a constant temperature (25° C.) on a 14-hr light, 10-hr dark cycle. Rat chow and water were available ad libitum. The animals were sacrificed by decapitation and anterior lobes of the pituitary quickly removed. Rat pituitary cells were isolated from pituitaries by enzymatic digestion with 0.2% collagenase and 0.2% hyaluronidase in Hank's Balanced Salt Solution. For culture, the cells were suspended in culture medium and adjusted to 1.5×10^5 cells/ml, and 1.0 ml of this suspension was placed in each well of a 24-well tray (Costar, Cambridge, Mass.). Cells were maintained in a humidified 5% CO2 -95% air atmosphere at 37° C. for 3 to 4 days. The culture medium consisted of DMEM containing 0.37% NaHCO3, 10% horse serum, 2.5% fetal bovine serum, 1% non-essential amino acids, 1% glutamine, 1% nystatin, and 0.1% gentamycin. On the day of an experiment, cells were washed twice 11/2 hrs prior to and once more immediately before the start of the experiment with the above culture medium containing 25 mM HEPES, pH 7.4. GH release was initiated by adding 1 ml of fresh medium containing test agents to each well in quadruplicate. Incubation was carded out at 37° C. for 15 min. After incubation, medium was removed and centrifuged at 2,000×g for 15 min to remove any cellular material. The supernatant fluid was removed and assayed for GH content. Rat GH in culture medium was measured by a double antibody RIA procedure using materials obtained from Dr. A. F. Parlow (Harbor-UCLA medical Center, Torrance, Calif.) and expressed in terms of the standard rat GH RP-2. ED50 values for test compounds were computed by fitting a four-parameter logistic function to the dose-response curve. Least squares estimates of the four-parameter logistic function coefficients and their variances were derived using the iterative algorithm described by Bates and Watts.
Regarding `CC(C)(N)CC(=O)N[C@H](CCc1ccccc1)C(=O)NCc1ccc(-c2ccccc2-c2nnn[nH]2)cc1` [Example 1, (R)-α-[(3-Amino-3-methyl-1-oxobutyl)amino]-N-[[2'-(1H-tetrazol-5-yl)[1,1'-biphenyl]-4-yl]methyl]benzene-butanamide, trifluoroacetate], the EC50 is over 0.5 µM. Still for that read-out and setting: next, `CC(C)(N)CC(=O)N[C@H](Cc1ccccc1)C(=O)NCc1ccc(-c2ccccc2-c2nnn[nH]2)cc1` [Example 2, (R)-α-[(3-Amino-3-methyl-1-oxobutyl)amino]-N-[[2'-(1H-tetrazol-5-yl)[1,1'-biphenyl]-4-yl]methyl]benzene-propanamide, trifluoroacetate]: under 0.5 µM; `CC(C)(N)CC(=O)N[C@H](Cc1c[nH]c2ccccc12)C(=O)NCc1ccc(-c2ccccc2-c2nnn[nH]2)cc1` [Example 3, (R)-α-[(3-Amino-3-methyl-1-oxobutyl)amino]-N-[[2'-(1H-tetrazol-5-yl)[1,1'-biphenyl]-4-yl]methyl]-1H-indole-3-propanamide, trifluoroacetate]: under 0.5 µM. `CC[C@@H](NC(=O)CC(C)(C)N)C(=O)N(Cc1ccc(-c2ccccc2-c2nnn[nH]2)cc1)c1ccccc1` [Example 4, (R)-2-[(3-Amino-3-methyl-1-oxobutyl)amino]-N-phenyl-N-[[2'-(1H-tetrazol-5-yl)[1,1'-biphenyl]-4-yl]methyl]butanamide, trifluoroacetate]: the EC50 was over 0.5 µM. On the same count and under the same terms, as for `CC(C)(N)CC(=O)NCC(=O)NCc1ccc(-c2ccccc2-c2nnn[nH]2)cc1` [Example 5, 2-[(3-Amino-3-methyl-1-oxobutyl)amino]-N-[[2'-(1H-tetrazol-5-yl)[1,1'-biphenyl]-4-yl]methyl]acetamide, trifluoroacetate], the figure is over 0.5 µM; as for `CNC(=O)Nc1ccccc1-c1ccc(CNC(=O)[C@@H](Cc2c[nH]c3ccccc23)NC(=O)C(C)(C)N)cc1` [Example 6, (R)-α-[(2-Amino-2-methyl-1-oxopropyl)amino]-N-[[2'-[[(methylamino)carbonyl]amino][1,1'-biphenyl]-4-yl]methyl]-1H-indole-3-propanamide, trifluoroacetate], over 0.5 µM. Turning to `CN(Cc1ccc(-c2ccccc2-c2nnn[nH]2)cc1)C(=O)[C@@H](Cc1c[nH]c2ccccc12)NC(=O)C(C)(C)N` [Example 13, (R)-α-[(2-Amino-2-methyl-1-oxopropyl)amino]-N-methyl-N-[[2'-(1H-tetrazol-5-yl)[1,1'-biphenyl]-4-yl]methyl]-1H-indole-3-propanamide, trifluoroacetate], the EC50 is over 0.5 µM.

For the compound `CNC(=O)Nc1ccccc1-c1ccc(CNC(=O)[C@@H](Cc2c[nH]c3ccccc23)NC(=O)CC(C)(C)N)cc1` [Example 15, (R)-α-[(3-Amino-3-methyl-1-oxobutyl)amino]-N-[[2'-[[(methylamino)carbonyl]amino][1,1'-biphenyl]-4-yl]-methyl]-1H-indole-3-propanamide, trifluoroacetate], the EC50 was over 0.5 µM. For the compound `CC(C)(N)C(=O)N[C@H](Cc1c[nH]c2ccccc12)C(=O)NCc1ccc(-c2ccccc2NC(=O)NCCO)cc1` [Example 16, (R)-α-[(2-Amino-2-methyl-1-oxopropyl)amino]-N-[[2'-[[(2-hydroxyethylamino)carbonyl]amino][1,1'-biphenyl]-4-yl]-methyl]-1H-indole-3-propanamide, trifluoroacetate], the EC50 is over 0.5 µM. Still for that read-out and setting: as for `CC(C)(N)CC(=O)N[C@H](Cc1c[nH]c2ccccc12)C(=O)NCc1ccc(-c2ccccc2NC(=O)NCCO)cc1` [Example 17, (R)-α-[(3-Amino-3-methyl-1-oxobutyl)amino]-N-[[2'-[[(2-hydroxyethylamino)carbonyl]amino][1,1'-biphenyl]-4-yl]-methyl]-1H-indole-3-propanamide, trifluoroacetate], the figure is over 0.5 µM; as for `CNC(=O)Nc1ccccc1-c1ccc(CNC(=O)[C@@H](COCc2ccccc2)NC(=O)C(C)(C)N)cc1` [Example 23, (R)-α-[(2-Amino-2-methyl-1-oxopropyl]amino]-N-[[2'-[[(methylamino)carbonyl]amino][1,1'-biphenyl]-4-yl]methyl]-3-[(phenylmethyl)oxy]propanamide, trifluoroacetate], over 0.5 µM.

Staying with this test, now noted: GH release from cultured rat anterior pituitary cells, 15 min incubation at 37° C., rat GH measured by double antibody RIA; read-out: ED50 (the source's name).
For the compound `CN(Cc1ccc(-c2ccccc2-c2nnn[nH]2)cc1)C(=O)[C@@H](CCc1ccccc1)NC(=O)C(C)(C)N.O=C(O)C(F)(F)F` [Example 7a, (R)-α-[(2-Amino-2-methyl-1-oxypropyl)amino]-N-methyl-N-[[2'-(1H-tetrazol-5-yl)-[1,1'-biphenyl]-4-yl]methyl]benzenebutanamide trifluoroacetate], the EC50 is on record as under 0.5 µM. In the case of `CN(Cc1ccc(-c2ccccc2C#N)cc1)C(=O)[C@@H](CCc1ccccc1)NC(=O)C(C)(C)N.O=C(O)C(F)(F)F` [Example 7b, (R)-α-[(2-amino-2-methyl-1-oxypropyl)amino]-N-[[2'-cyano-[1,1'-biphenyl]-4-yl]methyl]-N-methyl-benzenebutanamide trifluoroacetate], the EC50 is listed as over 0.5 µM. On the same count and under the same terms, as for `CN(Cc1ccc(-c2ccccc2-c2nnn[nH]2)cc1)C(=O)[C@@H](CCc1ccccc1)NC(=O)CC(C)(C)N.O=C(O)C(F)(F)F` [Example 8a, (R)-α-[(3-Amino-3-methyl-1-oxybutyl)amino]-N-methyl-N-[[2'-(1H-tetrazol-5-yl)-[1,1'-biphenyl]-4-yl]methyl]benzenebutanamide, trifluoroacetate], the figure is over 0.5 µM.

Take `CNC(=O)NCc1ccccc1-c1ccc(CN(C)C(=O)[C@@H](CCc2ccccc2)NC(=O)C(C)(C)N)cc1.O=C(O)C(F)(F)F` [Example 9]: the EC50 is recorded as under 0.5 µM.

Consider `CNC(=O)NCc1ccccc1-c1ccc(CN(C)C(=O)[C@@H](CCc2ccccc2)NC(=O)CC(C)(C)N)cc1.O=C(O)C(F)(F)F` [Example 10], for which the EC50 is given as under 0.5 µM. Same read-out and setting: next, `CN(Cc1ccc(-c2ccccc2-c2nnn[nH]2)cc1)C(=O)[C@@H](CCc1ccccc1)NC(=O)CCC(C)(C)N.O=C(O)C(F)(F)F` [Example 11, (R)-α-[(4-Amino-4-methyl-1-oxopentyl)amino]-N-methyl-N-[[2'-(1H-tetrazol-5-yl)[1,1'-biphenyl]-4-yl]methyl]benzenebutan amide, trifluoroacetate]: under 0.5 µM; `CNC(=O)NCc1ccccc1-c1ccc(CN(C)C(=O)[C@@H](CCc2ccccc2)NC(=O)CCC(C)(C)N)cc1.O=C(O)C(F)(F)F` [Example 12]: under 0.5 µM; `CNC(=O)NCc1ccccc1-c1ccc(CN(C)C(=O)[C@@H](Cc2c[nH]c3ccccc23)NC(=O)C(C)(C)N)cc1.O=C(O)C(F)(F)F` [Example 14]: under 0.5 µM.

Take `CCN(Cc1ccc(-c2ccccc2-c2nnn[nH]2)cc1)C(=O)[C@@H](CCc1ccccc1)NC(=O)C(C)(C)N.O=C(O)C(F)(F)F` [Example 18, (R)-α-[(2-Amino-2-methyl-1-oxypropyl)amino]-N-ethyl-N-[[2'-(1H-tetrazol-5-yl)-[1,1'-biphenyl]-4-yl]methyl]benzenebutanamide, trifluoroacetate]: the EC50 was over 0.5 µM. Same read-out and setting: as for `CCN(Cc1ccc(-c2ccccc2-c2nnn[nH]2)cc1)C(=O)[C@@H](CCc1ccccc1)NC(=O)CC(C)(C)N.O=C(O)C(F)(F)F` [Example 19, (R)-α-[(3-Amino-3-methyl-1-oxybutyl)amino]-N-ethyl-N-[[2'-(1H-tetrazol-5-yl)-[1,1'-biphenyl]-4-yl]methyl]benzenebutanamide, trifluoroacetate], the figure is over 0.5 µM; as for `CCN(Cc1ccc(-c2ccccc2CNC(=O)NC)cc1)C(=O)[C@@H](CCc1ccccc1)NC(=O)C(C)(C)N.O=C(O)C(F)(F)F` [Example 20, (R)-α-[(2-Amino-2-methyl-1-oxypropyl)amino]-N-ethyl-N-[[(2'-[((methylamino)carbonyl)aminomethyl])-[1,1'-biphenyl]-4-yl]methyl]benzenebutanamide,trifluoroacetate], under 0.5 µM; as for `CCN(Cc1ccc(-c2ccccc2CNC(=O)NC)cc1)C(=O)[C@@H](CCc1ccccc1)NC(=O)CC(C)(C)N.O=C(O)C(F)(F)F` [Example 21], under 0.5 µM. Regarding `CCCN(Cc1ccc(-c2ccccc2-c2nnn[nH]2)cc1)C(=O)[C@@H](CCc1ccccc1)NC(=O)C(C)(C)N.O=C(O)C(F)(F)F` [Example 22, (R)-α-[(2-Amino-2-methyl-1-oxypropyl)amino]-N-[[2'-(1H-tetrazol-5-yl)-[1,1'-biphenyl]-4-yl]methyl]-N-(propyl)benzenebutanamide, trifluoroacetate], the EC50 is under 0.5 µM. On the same count and under the same terms, as for `CNC(=O)Nc1ccccc1-c1ccc(CNC(=O)[C@@H](COCc2ccccc2)NC(=O)CC(C)(C)N)cc1.O=C(O)C(F)(F)F` [Example 24], the figure is over 0.5 µM.

Source of the values: patent publication US5726319A, “Biphenyl substituted dipeptide analogs promote release of growth hormone” (Merck & Co., Inc., priority 1995, dated 1998).
